The text below walks through data of patent US12371464B2, “Polypeptides and uses thereof” (MEDIMMUNE LIMITED, priority 2020, dated 2025).

What all share (type): cell-based
For experiment [1], the target named is T1, rat calcitonin receptor (rat CTR) (Rattus norvegicus, UniProt P32214).
T1 construct: expressed in transfected cells
T1 sequence (P32214 25-516): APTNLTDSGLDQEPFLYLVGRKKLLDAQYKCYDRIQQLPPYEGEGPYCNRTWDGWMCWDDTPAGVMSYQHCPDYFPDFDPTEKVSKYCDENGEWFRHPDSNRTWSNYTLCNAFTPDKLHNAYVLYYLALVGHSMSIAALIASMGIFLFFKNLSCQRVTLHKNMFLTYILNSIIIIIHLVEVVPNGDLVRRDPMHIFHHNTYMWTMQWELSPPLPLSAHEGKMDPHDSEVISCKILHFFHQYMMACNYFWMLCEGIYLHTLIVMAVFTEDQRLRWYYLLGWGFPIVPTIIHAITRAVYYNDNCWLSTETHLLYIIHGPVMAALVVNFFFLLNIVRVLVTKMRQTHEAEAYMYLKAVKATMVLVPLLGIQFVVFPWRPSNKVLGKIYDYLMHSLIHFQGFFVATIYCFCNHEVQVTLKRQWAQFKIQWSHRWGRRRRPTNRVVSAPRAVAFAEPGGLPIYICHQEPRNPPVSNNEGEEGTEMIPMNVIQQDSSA
The experiment in a line: cAMP production in HEK cells with stable recombinant expression of rat calcitonin receptor (rat CTR). The note with it: cAMP HTRF, assay buffer with 0.1% BSA, 30 minutes. As for the experimental part: (§1) The functional activities of lipidated pramlintide analogue peptides, such as cAMP production, were tested in 1321N1 cell line with stable recombinant expression of human calcitonin receptor (hCTR) or human amylin receptor (calcitonin receptor co-expressed with receptor activity modifying protein, RAMP3) (hAMYR3) or HEK cells with stable recombinant expression of rat calcitonin receptor (rat CTR) or rat amylin receptor (calcitonin receptor co-expressed with receptor activity modifying protein, RAMP3) (Rat AMYR3). […]
(§2) The test peptide stock was prepared in DMSO and diluted in assay buffer to reach stated concentrations and transferred in duplicates into a 384-black shallow well microtitre assay plate (Corning #3676). Cells were added to the assay plate, incubated at room temperature for 30 minutes and the CAMP level measured using CAMP dynamic 2 HTRF kit (Cisbio, Cat #62AM4PEJ), following the two step protocol as per manufacturer's recommendations. The plates were read on an Envision (Perkin Elmer) using excitation wavelength of 320 nm and emission wavelengths of 620 nm & 665 nm.
(§3) Data was transformed to % Delta F as described in the manufacturer's guidelines and analyzed as percent activation of maximal amylin or calcitonin effect by 4-parameter logistic fit to determine EC50 values. […]
(Cyclic AMP is a second messenger, typically raised through Gs and lowered through Gi signalling.)

In experiment [2] the target is T2, human amylin receptor (calcitonin receptor co-expressed with receptor activity modifying protein, RAMP3) (hAMYR3) (Homo sapiens, UniProt O60896+P30988).
T2 construct: expressed in transfected cells
T2 sequence (P30988 25-474): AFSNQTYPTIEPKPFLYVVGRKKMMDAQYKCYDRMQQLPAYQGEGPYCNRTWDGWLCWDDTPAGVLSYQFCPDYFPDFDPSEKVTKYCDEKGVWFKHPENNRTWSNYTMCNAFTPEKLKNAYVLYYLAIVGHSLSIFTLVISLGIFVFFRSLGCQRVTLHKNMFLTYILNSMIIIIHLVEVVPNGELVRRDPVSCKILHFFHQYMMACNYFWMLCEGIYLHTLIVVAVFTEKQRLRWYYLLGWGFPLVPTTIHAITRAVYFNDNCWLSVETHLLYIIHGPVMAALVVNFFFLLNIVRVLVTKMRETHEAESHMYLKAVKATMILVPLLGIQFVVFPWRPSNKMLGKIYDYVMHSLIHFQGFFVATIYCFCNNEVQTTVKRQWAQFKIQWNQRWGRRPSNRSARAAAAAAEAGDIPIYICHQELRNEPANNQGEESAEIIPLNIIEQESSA
T2 sequence (O60896 24-148 partner): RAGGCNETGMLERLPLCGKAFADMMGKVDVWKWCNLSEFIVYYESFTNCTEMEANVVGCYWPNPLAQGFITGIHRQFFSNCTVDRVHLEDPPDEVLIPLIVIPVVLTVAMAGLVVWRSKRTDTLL
The experiment in a line: cAMP production in 1321N1 cells with stable recombinant expression of human amylin receptor (hAMYR3). The note with it: cAMP production, 1321N1 cells expressing human amylin3 receptor. On the procedure:
The functional activities of lipidated pramlintide analogue peptides, such as cAMP production, were tested in 1321N1 cell line with stable recombinant expression of human calcitonin receptor (hCTR) or human amylin receptor (calcitonin receptor co-expressed with receptor activity modifying protein, RAMP3) (hAMYR3) or HEK cells with stable recombinant expression of rat calcitonin receptor (rat CTR) or rat amylin receptor (calcitonin receptor co-expressed with receptor activity modifying protein, RAMP3) (Rat AMYR3).
Cryopreserved cell stock was thawed rapidly in a water-bath, suspended in assay buffer (0.1% BSA (Sigma #A3059) in HBSS (Sigma #H8264) with 25 mM HEPES, pH 7.4 and containing 0.5 mM IB MX (Sigma #17018)) and spun at 240×g for 5 minutes. Cells were re-suspended in assay buffer at a batch-dependent optimized concentration (e.g. hCTR cells at 0.125×10^5 cells/mL, hAMYR3 cells at 0.125×10^5 cells/mL, rat CTR cells at 1×10^5 cells/mL, rat AMYR3 at 2×10^5 cells/mL).
as §2
Data was transformed to % Delta F as described in the manufacturer's guidelines and analyzed as percent activation of maximal amylin or calcitonin effect by 4-parameter logistic fit to determine EC50 values. The selectivity of a peptide to hAMYR vs hCTR is defined as a ratio of EC50 values at the two receptors.

For experiment [3], the target named is T3, rat amylin receptor (calcitonin receptor co-expressed with receptor activity modifying protein, RAMP3) (Rat AMYR3) (Rattus norvegicus, UniProt P32214+Q9JJ73).
T3 construct: expressed in transfected cells
T3 sequence (P32214 25-516): T1 sequence (P32214 25-516)
T3 sequence (Q9JJ73 23-147 partner): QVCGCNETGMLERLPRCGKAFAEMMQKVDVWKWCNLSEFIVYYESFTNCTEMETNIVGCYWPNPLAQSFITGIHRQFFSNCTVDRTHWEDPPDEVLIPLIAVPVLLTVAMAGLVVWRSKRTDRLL
Nature of the experiment: cAMP production in HEK cells with stable recombinant expression of rat amylin receptor (Rat AMYR3). The following applies: cAMP HTRF, assay buffer with 0.1% BSA, 30 minutes. As for the experimental part: as §1, §2, §3

SMILES strings stand for the structures. Numbered stars: 1 amine (or outer) side, 2 acyl side, 3 side chain; on linkers, the order of the positions; unused ones are H or OH. Bridge positions count the residues as written; N and C are the ends. Side chains are listed from the residue outwards. Peptide text beside a SMILES is read from it. * marks the point of attachment. C20 diacid = O=C(O)CCCCCCCCCCCCCCCCCCC(=O)*; γGlu = O=C(O)[C@H](CCC(=O)[*:2])N[*:1]

For orientation: EC50 means the concentration giving half of the maximal effect. As to `CC[C@H](C)[C@H](NC(=O)[C@H](C)NC(=O)[C@@H]1CCCN1C(=O)[C@H](Cc1ccccc1)NC(=O)[C@H](CC(N)=O)NC(=O)[C@@H]1CCCN1C(=O)[C@H](CO)NC(=O)[C@H](CO)NC(=O)[C@H](Cc1c[nH]cn1)NC(=O)[C@@H](NC(=O)[C@H](CC(C)C)NC(=O)[C@H](Cc1ccccc1)NC(=O)[C@H](CC(N)=O)NC(=O)[C@H](C)NC(=O)[C@H](CC(C)C)NC(=O)[C@H](CCCNC(=N)N)NC(=O)[C@H](CCC(N)=O)NC(=O)[C@@H](NC(=O)[C@H](C)NC(=O)[C@@H]1CSSC[C@H](NC(=O)[C@@H](N)CCCCNC(=O)CC[C@H](NC(=O)CC[C@H](NC(=O)CCCCCCCCCCCCCCCCCCC(=O)O)C(=O)O)C(=O)O)C(=O)N[C@@H](CC(N)=O)C(=O)N[C@@H]([C@@H](C)O)C(=O)N[C@@H](C)C(=O)N[C@@H]([C@@H](C)O)C(=O)N1)[C@@H](C)O)C(C)C)C(=O)N[C@@H](CC(C)C)C(=O)N[C@@H](CO)C(=O)N1CCC[C@H]1C(=O)N[C@H](C(=O)N[C@@H](CC(N)=O)C(=O)N[C@H](C(=O)NCC(=O)N[C@@H](CO)C(=O)N[C@@H](CC(N)=O)C(=O)N[C@H](C(=O)N[C@@H](Cc1ccc(O)cc1)C(N)=O)[C@@H](C)O)C(C)C)[C@@H](C)O` [Peptide 115] (H-K([γGlu-γGlu-C20 diacid])CNTATCATQRLANFLVHSSPNFPAILSPTNVGSNTY-NH2; disulfide 2-7; N-terminus assumed), the EC50 in experiment [1] stood at 22.6 nM; in experiment [2], 0.703 nM; in experiment [3], 0.0226 nM.
As to `CC[C@H](C)[C@H](NC(=O)[C@@H]1CCCN1C(=O)CNC(=O)[C@H](Cc1ccccc1)NC(=O)[C@H](CC(N)=O)NC(=O)[C@H](CC(N)=O)NC(=O)[C@H](CO)NC(=O)[C@H](CO)NC(=O)[C@H](Cc1c[nH]cn1)NC(=O)[C@@H](NC(=O)[C@H](CC(C)C)NC(=O)[C@H](Cc1ccccc1)NC(=O)[C@H](CC(N)=O)NC(=O)[C@H](C)NC(=O)[C@H](CC(C)C)NC(=O)[C@H](CCCNC(=N)N)NC(=O)[C@H](CCC(N)=O)NC(=O)[C@@H](NC(=O)[C@H](C)NC(=O)[C@@H]1CSSC[C@H](NC(=O)[C@@H](N)CCCCNC(=O)CC[C@H](NC(=O)CC[C@H](NC(=O)CCCCCCCCCCCCCCCCCCC(=O)O)C(=O)O)C(=O)O)C(=O)N[C@@H](CC(N)=O)C(=O)N[C@@H]([C@@H](C)O)C(=O)N[C@@H](C)C(=O)N[C@@H]([C@@H](C)O)C(=O)N1)[C@@H](C)O)C(C)C)C(=O)N[C@@H](CC(C)C)C(=O)N1CCC[C@H]1C(=O)N1CCC[C@H]1C(=O)N[C@H](C(=O)N[C@@H](CC(N)=O)C(=O)N[C@H](C(=O)NCC(=O)N[C@@H](CO)C(=O)N[C@@H](CCCNC(=N)N)C(=O)N[C@H](C(=O)N[C@@H](Cc1ccc(O)cc1)C(N)=O)[C@@H](C)O)C(C)C)[C@@H](C)O` [Peptide 114] (H-K([γGlu-γGlu-C20 diacid])CNTATCATQRLANFLVHSSNNFGPILPPTNVGSRTY-NH2; disulfide 2-7; N-terminus assumed), the EC50 in experiment [1] stood at 4.87 nM; in experiment [2], 1.32 nM; in experiment [3], 0.0122 nM.
